Where “and” joins values, the source holds several entries; their conditions need not be identical. Identical values can stand only once. Like-named read-outs stand apart in the source and are kept apart here.
What was measured:
[1] = system: ICU patients; assay: Phase III multicenter ICU sedation trial, Trial 2 (midazolam and morphine as rescue)
Description: (§1) Two Phase III dexmedetomidine multicenter clinical trials (Trial 1 and Trial 2) have been conducted in ICU sedation in Europe and Canada. Each trial had two parts, i.e., an open-label part (Part I) and double-blind, randomized, placebo-controlled part (Part II). The trials were designed to evaluate the reduction in requirements for ICU sedation (as measured by administration of other sedative/analgesic agents) in patients receiving dexmedetomidine. The use of propofol and morphine for sedation and analgesia, respectively, was evaluated in one trial (Trial 1), and midazolam and morphine in the other trial (Trial 2).
(§2) In Part I of the trials patients were to be administered a 6.0 μg/kg/h loading dose of dexmedetomidine over a 10-minute period, followed by an initial maintenance infusion of 0.4 μg/kg/h. During Part II of the study, patients were randomly assigned to receive either placebo (0.9% sodium chloride solution) or dexmedetomidine. […] The dexmedetomidine dosing protocol was the same as in the Part I of the study. […] Following extubation, the infusion rate was to be adjusted to achieve a Ramsay Sedation Score of 2 or higher.
(§3) During the 10-minute loading dose, additional medication was to be avoided, but propofol (0.2-mg/kg bolus) in Trial 1 and midazolam (1-mg bolus) in Trial 2 could be given if necessary. During dexmedetomidine infusion, rescue medications were limited to propofol (0.2 mg/kg IV boluses) in Trial 1 and midazolam ([…]) in Trial 2 for sedation and morphine for pain (2-mg IV boluses). After extubation, paracetamol was to be permitted for pain as clinically indicated. Propofol and midazolam were to be given only after increasing the dexmedetomidine infusion rate. Dexmedetomidine administration in Parts I and II was to begin within 1 hour of admission to the ICU and to be continued for 6 hours after extubation to a maximum of 24 hours total study drug infusion. Patients were observed and assessed for an additional 24 hours after cessation of dexmedetomidine.

[2] = system: ICU patients; assay: Phase III multicenter ICU sedation trial, Trial 1 (propofol and morphine as rescue); details: for dexmedetomidine-treated patients who died: none considered related to dexmedetomidine
Description: as §1, §2, §3

[3] = system: postoperative coronary artery bypass graft(s) patients (CABG), requiring sedation in the ICU
[4] = system: postsurgical ICU patients
Description: as §1, §2, §3
The following 16 cases are from the above mentioned Part II of trials 1 and 2.

[5] = system: postoperative CABG patients requiring mechanical ventilation in the ICU
Experimental: A double-blind, randomized, placebo-controlled study was conducted to evaluate the efficacy, safety, and titratability of dexmedetomidine in mechanically ventilated patients requiring sedation in the ICU. […] Twelve adult postoperative CABG patients requiring mechanical ventilation in the ICU who met the study selection criteria were eligible for participation.
The selection criteria were as follows. The patients required sedation for mechanical ventilation for a minimum of 8 hours following surgery, followed by continued sedation for 6 hours after extubation. The patients were not to have been intubated longer than 24 hours to be evaluable for the test. The patients received only morphine for management for pain and received none of the following medications during study drug administration: sedating agents other than midazolam, neuromuscular blocking agents except for insertion of the endotrachael tube, epidural or spinal analgesic/anesthetic agents.
Safety was evaluated through the monitoring of adverse events, cardiac monitoring, laboratory tests, vital signs, oxygen saturation, and concomitant medications.
Twelve patients were randomly assigned to receive either dexmedetomidine or placebo with rescue treatment for sedation with midazolam, as clinically indicated. Patients randomized to dexmedetomidine were to receive a 10-minute loading dose of 6.0 μg/kg/h, followed by an initial maintenance infusion. The rate of maintenance infusion was 0.4 μg/kg/h. The maintenance rate of infusion could be titrated in increments of 0.1 μg/kg/h to achieve and maintain a Ramsey Sedation Score of 3 or higher. The range for the maintenance infusion was to be kept between 0.2 and 0.7 μg/kg/h. Dexmedetomidine administration was to begin within one hour after admission to the ICU and continued until 6 hours after extubation. […] The placebo was 0.9% sodium chloride solution administered the same way dexmedetomidine was administered.

[6] = case 4, immediately after extubation

SMILES: Cc1cccc([C@H](C)c2c[nH]cn2)c1C [dexmedetomidine, (+)-(S)-4-[1-(2,3-dimethylphenyl)ethyl]-1H-imidazole]
- midazolam required for sedation, vs placebo ([1]; Trial 2): significantly less
- morphine required for pain, vs placebo ([1]; Trial 2): significantly less
- deaths among dexmedetomidine-treated patients ([1]; Trial 2, Part I and Part II, five placebo-treated patients died): No deaths
- speed of achieving sedation levels ([1]; Trial 2, vs placebo-treated patients who received midazolam): more quickly
- changes in systolic blood pressure, diastolic blood pressure and heart rate ([1]; in vivo): consistent with the known pharmacological effect of α2-agonists
- respiratory depression ([1]; in vivo): no clinically apparent respiratory depression
- safety and tolerability ([1]; in vivo): safe and well tolerated
- morphine required for pain, vs placebo ([2]; Trial 1): significantly less
- propofol required for sedation, vs placebo ([2]; Trial 1): significantly less
- dexmedetomidine-treated patients who died ([2]; Trial 1, Part I): three
- dexmedetomidine-treated patients who died ([2]; Trial 1, Part II, one placebo-treated patient died): three
- speed of achieving sedation levels ([2]; Trial 1, vs placebo-treated patients who received propofol): more quickly
- changes in systolic blood pressure, diastolic blood pressure and heart rate ([2]; in vivo): consistent with the known pharmacological effect of α2-agonists
- respiratory depression ([2]; in vivo): no clinically apparent respiratory depression
- safety and tolerability ([2]; in vivo): safe and well tolerated
- patients who required morphine for pain ([3]; 12 patients, infusion 0.2 to 0.7 μg/kg/h): Two
- patients with serious adverse events ([3]; 12 patients, circulatory failure and myocardial infarction, infarction had little or no temporal relationship to dexmedetomidine): One
- quality of sedation ([3]; dexmedetomidine as only pharmaceutical): conveniently sedated, hemodynamically stable, and remained easily arousable
- blood pressure and heart rate variability ([3]; during administration of dexmedetomidine): decreased
- time until clinical effects of sedation became evident ([3]; iv loading 6 μg/kg/h over 10 min, then maintenance 0.2 or 0.4 μg/kg/h): 15 to 30 min
- morphine doses required while receiving dexmedetomidine ([4]; case 1, 5 minutes before extubation): one
- Ramsay Sedation Score ([4]; case 1, after the first hour): 3
- Ramsay Sedation Score ([4]; case 1, during the first hour): 6
- Ramsay Sedation Score ([4]; case 1, later): 2
- analgesic requirement ([4]; case 2, during the 12-hour infusion 0.2 to 0.7 μg/kg/h): required no morphine or other analgesic
- Ramsay Sedation Score ([4]; case 3, after the first hour): 4
- Ramsay Sedation Score ([4]; case 3, during the first hour (baseline score, fully anaesthetized after surgery)): 6
- midazolam and morphine requirement ([4]; case 3, maintenance 0.2 to 0.3 μg/kg/h): required no midazolam or morphine
- Ramsay Sedation Score ([4]; case 3, subsequently): 3
- midazolam required [4, 6]: 2 mg
- morphine required [4, 6]: 2 mg
- morphine dose required ([4]; case 5, after dexmedetomidine infusion was discontinued): 76 mg
- midazolam dose received ([4]; case 5, at 46 minutes and again at 66 minutes after start of infusion): 2 mg
- initial postoperative morphine requirements ([4]; case 5, during dexmedetomidine infusion): 24 mg
- morphine requirement while on dexmedetomidine ([4]; case 6): required no morphine
- morphine required ([4]; case 6, after extubation and cessation of infusion, before discharge from the ICU): 4 mg
- midazolam administered, total ([4]; case 6, agitation over endotracheal tube at maximum allowable dose): 16 mg
- morphine required ([4]; case 6, first few hours after return to the ward): ~50 mg
- morphine and midazolam requirement ([4]; case 6, first hours of infusion): required no morphine or midazolam
- Ramsey Sedation Score ([4]; case 6, maintenance 0.4 to 0.7 μg/kg/h): approximately 4
- Ramsey Sedation Score ([4]; case 7, 0.4 titrated to 0.7 μg/kg/h): approximately 4
- morphine requirements ([4]; case 7, first 6 hours in the ICU, graft failure with ongoing bleeding): fluctuated markedly
- propofol and morphine requirement ([4]; case 8, after propofol discontinued at 3 hours, dexmedetomidine tapered to 0.2 μg/kg/h): No additional propofol or morphine was required
- Ramsey Sedation Score ([4]; case 8, dexmedetomidine 0.7 μg/kg/h with propofol 4 mg/kg/h, oversedated): 6
- Ramsey Sedation Score ([4]; case 9, while receiving dexmedetomidine): 3
- additional sedative and analgesia requirement ([4]; case 10, during the infusion): required no additional sedatives and very little analgesia
- Ramsey Sedation Score ([4]; case 10, intubated, infusion 0.4-0.7 μg/kg/h): 4
- additional sedative requirement ([4]; case 11, history of excessive alcohol intake, infusion between 0.3 and 0.7 μ/kg/h): no additional sedatives were required
- anxiolysis and orientation ([4]; case 12, high preoperative anxiety, infusion 0.2-0.5 μg/kg/h): calm, had no fear or apprehension, and was well oriented
- achievement of desired level of sedation ([4]; case 13, FIG. 2): very easily achieved with little dose adjustment
- morphine sulfate required (single dose) ([4]; case 13, at 6 hours into the study period): 2 mg
- opiate requirement ([4]; case 14, before extubation): no opiate was required
- Ramsey Sedation Score ([4]; case 14, first half hour): 6
- morphine required (single injection) ([4]; case 14, moderate pain after extubation): 2 mg
- Ramsey Sedation Score ([4]; case 14, remainder of ICU stay after titration (score of 2 or 3)): 2 and 3
- Ramsey Sedation Score ([4]; case 15, infusion titrated): approximately 3
- PaCO2 ([4]; in vivo): stable
- blood pressure ([4]; in vivo): transient increase
- blood pressure (hypotension) ([4]; in vivo): 70/40
- haemodynamic instability ([4]; in vivo): No evidence of haemodynamic instability
- hemodynamic profile ([4]; in vivo): smooth without hypotension or episodes of bradycardia
- hypotension ([4]; in vivo): one episode of moderate hypotension
- respiratory depressant effect ([4]; in vivo): absence of a respiratory depressant effect
- respiratory depression ([4]; in vivo): no respiratory depression
- midazolam for sedation or morphine for pain required, vs placebo ([5]; human, in vivo): significantly less
- respiratory depression ([5]; human, in vivo): no clinically apparent respiratory depression
- safety and tolerability ([5]; human, in vivo): safe and well tolerated
- need for midazolam rescue for sedation ([5]; six dexmedetomidine-sedated patients, difference to placebo in mean total midazolam dose p=0.010): did not require any midazolam
- patients who required morphine for management of pain ([5]; vs five of six on placebo, mean total morphine dose difference p=0.040): One of six
